Legend:
[1] = molecular target: T1, AKT2 (Homo sapiens, UniProt P31751); test: KinomeScan; format: binding; conditions: read-out: % Control
T1 construct: purchased DiscoveRx (Fremont, CA)

[2] = molecular target: T2, AMPK-alpha1 (Homo sapiens, UniProt Q13131); test: KinomeScan; format: binding; conditions: read-out: % Control
T2 construct: purchased DiscoveRx (Fremont, CA)

[3] = molecular target: T3, AURKA (Homo sapiens, UniProt O14965); test: KinomeScan; format: binding; conditions: read-out: % Control
T3 construct: purchased DiscoveRx (Fremont, CA)

[4] = molecular target: T4, AURKB (Homo sapiens, UniProt Q96GD4); test: KinomeScan; format: binding; conditions: read-out: % Control
T4 construct: purchased DiscoveRx (Fremont, CA)

[5] = molecular target: T5, CAMK2G (Homo sapiens, UniProt Q13555); test: KinomeScan; format: binding; conditions: read-out: % Control
T5 construct: purchased DiscoveRx (KinomeScan service)

[6] = molecular target: T6, DCAMKL2 (Homo sapiens, UniProt Q8N568); test: KinomeScan; format: binding; conditions: read-out: % Control
T6 construct: purchased DiscoveRx (Fremont, CA), KinomeScan service

[7] = molecular target: T7, EGFR(L747-S752del, P753S) (Homo sapiens, UniProt P00533, DEL747-752/P753S); test: KinomeScan; format: binding; conditions: read-out: % Control
T7 construct: purchased DiscoveRx (Fremont, CA), KinomeScan service

[8] = molecular target: T8, FGFR4 (Homo sapiens, UniProt P22455); test: KinomeScan; format: binding; conditions: read-out: % Control
T8 construct: purchased DiscoveRx (Fremont, CA)

[9] = molecular target: T9, MLK2 (Homo sapiens, UniProt Q02779); test: KinomeScan; format: binding; conditions: read-out: % Control
T9 construct: purchased DiscoveRx

[10] = molecular target: T10, NIM1 (Homo sapiens, UniProt Q8IY84); test: KinomeScan; format: binding; conditions: read-out: % Control
T10 construct: purchased DiscoveRx

[11] = molecular target: T11, PIM2 (Homo sapiens, UniProt Q9P1W9); test: KinomeScan; format: binding; conditions: read-out: % Control
T11 construct: purchased DiscoveRx (Fremont, CA)

[12] = molecular target: T12, PRKCI (Homo sapiens, UniProt P41743); test: KinomeScan; format: binding; conditions: read-out: % Control
T12 construct: purchased DiscoveRx (Fremont, CA)

[13] = molecular target: T13, S6K1 (Homo sapiens, UniProt P23443); test: KinomeScan; format: binding; conditions: read-out: % Control
T13 construct: purchased DiscoveRx (Fremont, CA)

[14] = molecular target: T14, SgK110 (Homo sapiens, UniProt P0C264); test: KinomeScan; format: binding; conditions: read-out: % Control
T14 construct: purchased DiscoveRx (Fremont, CA)

[15] = molecular target: T15, SGK3 (Homo sapiens, UniProt Q96BR1); test: KinomeScan; format: binding; conditions: read-out: % Control
T15 construct: purchased DiscoveRx (Fremont, CA)

[16] = molecular target: T16, STK16 (Homo sapiens, UniProt O75716); test: KinomeScan; format: binding; conditions: read-out: % Control
T16 construct: purchased DiscoveRx (Fremont, CA)

[17] = molecular target: T17, TAOK2 (Homo sapiens, UniProt Q9UL54); test: KinomeScan; format: binding; conditions: read-out: % Control
T17 construct: purchased DiscoveRx (Fremont, CA)

[18] = molecular target: T18, TNIK (Homo sapiens, UniProt Q9UKE5); test: KinomeScan; format: binding; conditions: read-out: % Control
T18 construct: purchased DiscoveRx (Fremont, CA)

[19] = molecular target: T19, TNK1 (Homo sapiens, UniProt Q13470); test: KinomeScan; format: binding; conditions: read-out: % Control
T19 construct: purchased DiscoveRx (Fremont, CA)

[20] = molecular target: T20, TRKA (Homo sapiens, UniProt P04629); test: KinomeScan; format: binding; conditions: read-out: % Control
T20 construct: purchased DiscoveRx (Fremont, CA)

[21] = molecular target: T21, TYK2(JH2domain-pseudokinase) (Homo sapiens, UniProt P29597); test: KinomeScan; format: binding; conditions: read-out: % Control
T21 construct: TYK2(JH2domain-pseudokinase); purchased DiscoveRx

[22] = molecular target: T22, YANK1 (Homo sapiens, UniProt Q8WU08); test: KinomeScan; format: binding; conditions: read-out: % Control
T22 construct: purchased DiscoveRx

[23] = molecular target: T23, GLP-2 (Homo sapiens, UniProt O95838); test: GPCR Profiler; format: cell-based
T23 construct: host or cells: Chem-1 cells expressing Gα15

[24] = molecular target: T24, GnRH (Homo sapiens, UniProt P30968); test: GPCR Profiler; format: cell-based
T24 construct: host or cells: Chem-1 cells expressing Gα15

[25] = molecular target: T25, GPR91 (Homo sapiens, UniProt Q9BXA5); test: GPCR Profiler; format: cell-based
T25 construct: host or cells: Chem-1 cells with promiscuous Gα15

[26] = molecular target: T26, M4 (Homo sapiens, UniProt P08173); test: GPCR Profiler; format: cell-based
T26 construct: host or cells: Chem-1 cells with promiscuous Gα15

[27] = molecular target: T27, NK1 (Homo sapiens, UniProt P25103); test: GPCR Profiler; format: cell-based
T27 construct: host or cells: Chem-1 cells expressing Gα15

[28] = molecular target: T28, NPBW1 (Homo sapiens, UniProt P48145); test: GPCR Profiler; format: cell-based
T28 construct: host or cells: Chem-1 cells expressing Gα15

[29] = molecular target: T29, P2Y12 (Homo sapiens, UniProt Q9H244); test: GPCR Profiler; format: cell-based
T29 construct: host or cells: Chem-1 cells expressing Gα15

[30] = test system: PANC02; test: Scratch migration; format: cell-based; conditions: 10 μM OGM2, 24 hours
Procedure: In a second study. PANC02 pancreatic cells plated and grown to confluence. Using a P200 tip, cells were denuded and allowed to migrate for 24 hours in DMSO or 10 μM OGM2 and imaged.

[31] = test system: A549; test: Crystal violet viability, 24 hours; format: cell-based
Procedure: A549 lung cancer cells were plated at different concentrations of cell per well in a 96-well plate. On the following day cells were treated with increasing doses of OGM2. Twenty-four hours later cells viability was assayed with crystal violet and normalized to untreated.

[32] = molecular target: GPR68 (Homo sapiens, UniProt Q15743); test: Flow-induced calcium response, Chem1-GPR68 cells; format: cell-based; parameters: host or cells: Chem-1 cells (Chem1-OGR1); conditions: 5-minute pre-incubation with 3 μM OGM2
Procedure: Chem1-GPR68 cells were stained with calcium indicator dye, and then exposed to 34 dyn/cm^2 (3.4 Pa) of force, generating a robust calcium response that could be inhibited by a 5-minute pre-incubation with 3 μM OGM2. […] Of note, one example of a method to enhance expression of ATF4 gene is using CRISPRa with sgRNA targeting the ATF4 gene, including with the s RNAs with the following sequences: […]

T26 sequence (P08173 whole entry): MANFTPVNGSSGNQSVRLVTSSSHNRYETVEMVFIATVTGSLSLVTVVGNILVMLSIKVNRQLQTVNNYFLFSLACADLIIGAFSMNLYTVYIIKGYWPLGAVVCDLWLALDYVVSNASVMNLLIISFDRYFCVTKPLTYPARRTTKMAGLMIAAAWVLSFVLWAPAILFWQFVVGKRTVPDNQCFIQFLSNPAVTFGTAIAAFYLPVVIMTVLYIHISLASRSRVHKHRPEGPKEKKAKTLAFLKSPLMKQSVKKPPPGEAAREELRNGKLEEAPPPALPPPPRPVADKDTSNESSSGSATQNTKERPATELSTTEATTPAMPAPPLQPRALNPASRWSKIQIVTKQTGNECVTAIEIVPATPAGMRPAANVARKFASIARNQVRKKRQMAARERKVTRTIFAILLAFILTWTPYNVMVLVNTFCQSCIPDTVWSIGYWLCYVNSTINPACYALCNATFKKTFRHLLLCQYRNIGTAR
T23 sequence (O95838 whole entry): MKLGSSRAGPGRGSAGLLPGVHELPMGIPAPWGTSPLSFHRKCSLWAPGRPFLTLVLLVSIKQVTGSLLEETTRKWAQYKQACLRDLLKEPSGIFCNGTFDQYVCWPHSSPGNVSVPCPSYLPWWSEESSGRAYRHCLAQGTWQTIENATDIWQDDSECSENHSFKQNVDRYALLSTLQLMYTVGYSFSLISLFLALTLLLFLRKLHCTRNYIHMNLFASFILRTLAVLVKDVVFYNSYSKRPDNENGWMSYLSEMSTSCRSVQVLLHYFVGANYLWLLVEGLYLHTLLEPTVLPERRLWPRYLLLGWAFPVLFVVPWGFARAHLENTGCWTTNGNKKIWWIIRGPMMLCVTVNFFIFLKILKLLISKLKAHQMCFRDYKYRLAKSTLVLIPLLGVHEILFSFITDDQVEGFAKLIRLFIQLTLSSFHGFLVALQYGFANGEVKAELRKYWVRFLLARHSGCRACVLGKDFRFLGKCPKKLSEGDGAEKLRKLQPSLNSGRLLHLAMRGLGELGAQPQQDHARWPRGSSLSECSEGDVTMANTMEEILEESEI
T28 sequence (P48145 whole entry): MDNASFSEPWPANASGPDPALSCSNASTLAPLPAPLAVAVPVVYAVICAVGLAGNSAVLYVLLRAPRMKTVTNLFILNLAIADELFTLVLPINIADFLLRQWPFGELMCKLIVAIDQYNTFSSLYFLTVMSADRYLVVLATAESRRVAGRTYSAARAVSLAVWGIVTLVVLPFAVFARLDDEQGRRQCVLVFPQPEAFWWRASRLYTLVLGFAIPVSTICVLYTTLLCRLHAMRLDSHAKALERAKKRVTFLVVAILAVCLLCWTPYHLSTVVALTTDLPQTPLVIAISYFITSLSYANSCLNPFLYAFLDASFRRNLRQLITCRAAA
T25 sequence (Q9BXA5 whole entry, species assumed): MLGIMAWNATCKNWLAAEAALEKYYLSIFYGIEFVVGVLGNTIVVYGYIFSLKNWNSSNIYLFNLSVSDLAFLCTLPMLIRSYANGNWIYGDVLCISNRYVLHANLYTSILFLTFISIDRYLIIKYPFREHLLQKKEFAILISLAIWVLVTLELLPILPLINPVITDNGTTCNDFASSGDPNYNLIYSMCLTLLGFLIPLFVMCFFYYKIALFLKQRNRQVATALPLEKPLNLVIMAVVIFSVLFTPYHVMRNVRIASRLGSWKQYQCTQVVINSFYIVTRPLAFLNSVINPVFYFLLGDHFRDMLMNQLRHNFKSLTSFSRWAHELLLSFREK
T29 sequence (Q9H244 whole entry, species assumed): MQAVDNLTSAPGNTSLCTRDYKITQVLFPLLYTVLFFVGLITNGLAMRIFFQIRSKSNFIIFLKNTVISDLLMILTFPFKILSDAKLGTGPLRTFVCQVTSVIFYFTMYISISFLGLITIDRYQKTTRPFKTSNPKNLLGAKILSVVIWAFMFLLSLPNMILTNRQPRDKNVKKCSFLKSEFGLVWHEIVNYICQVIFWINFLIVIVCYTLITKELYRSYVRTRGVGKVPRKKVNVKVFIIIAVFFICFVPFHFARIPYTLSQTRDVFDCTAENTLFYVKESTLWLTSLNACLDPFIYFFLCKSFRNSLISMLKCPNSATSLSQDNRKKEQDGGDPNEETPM
T27 sequence (P25103 whole entry): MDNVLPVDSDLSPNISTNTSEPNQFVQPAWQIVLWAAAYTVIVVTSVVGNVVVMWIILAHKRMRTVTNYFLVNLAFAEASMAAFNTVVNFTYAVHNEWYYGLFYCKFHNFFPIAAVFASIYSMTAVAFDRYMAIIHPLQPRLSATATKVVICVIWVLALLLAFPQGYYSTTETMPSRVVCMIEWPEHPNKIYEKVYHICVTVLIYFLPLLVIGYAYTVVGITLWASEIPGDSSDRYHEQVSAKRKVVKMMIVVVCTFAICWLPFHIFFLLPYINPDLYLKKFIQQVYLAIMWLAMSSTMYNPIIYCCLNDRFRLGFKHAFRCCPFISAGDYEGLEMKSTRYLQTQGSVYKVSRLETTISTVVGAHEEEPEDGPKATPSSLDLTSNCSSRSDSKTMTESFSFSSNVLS
T24 sequence (P30968 whole entry): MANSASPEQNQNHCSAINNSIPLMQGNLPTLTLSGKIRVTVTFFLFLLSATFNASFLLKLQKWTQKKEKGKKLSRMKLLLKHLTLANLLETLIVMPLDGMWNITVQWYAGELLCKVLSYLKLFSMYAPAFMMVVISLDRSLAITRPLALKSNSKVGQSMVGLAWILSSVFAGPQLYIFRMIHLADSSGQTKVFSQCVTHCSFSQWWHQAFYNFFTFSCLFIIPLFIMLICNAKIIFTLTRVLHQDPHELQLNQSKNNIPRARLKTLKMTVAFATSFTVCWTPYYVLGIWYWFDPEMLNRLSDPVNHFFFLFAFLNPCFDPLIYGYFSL
T21 sequence (P29597 589-875 limits assumed): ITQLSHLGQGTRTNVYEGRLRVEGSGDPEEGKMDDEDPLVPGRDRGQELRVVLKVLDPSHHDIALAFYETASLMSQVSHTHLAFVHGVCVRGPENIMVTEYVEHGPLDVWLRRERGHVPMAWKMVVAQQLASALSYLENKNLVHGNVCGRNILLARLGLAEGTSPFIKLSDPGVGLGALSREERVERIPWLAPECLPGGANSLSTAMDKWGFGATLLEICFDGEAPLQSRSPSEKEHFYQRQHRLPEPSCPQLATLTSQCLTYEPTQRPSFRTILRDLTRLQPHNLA
T17 sequence (Q9UL54 whole entry): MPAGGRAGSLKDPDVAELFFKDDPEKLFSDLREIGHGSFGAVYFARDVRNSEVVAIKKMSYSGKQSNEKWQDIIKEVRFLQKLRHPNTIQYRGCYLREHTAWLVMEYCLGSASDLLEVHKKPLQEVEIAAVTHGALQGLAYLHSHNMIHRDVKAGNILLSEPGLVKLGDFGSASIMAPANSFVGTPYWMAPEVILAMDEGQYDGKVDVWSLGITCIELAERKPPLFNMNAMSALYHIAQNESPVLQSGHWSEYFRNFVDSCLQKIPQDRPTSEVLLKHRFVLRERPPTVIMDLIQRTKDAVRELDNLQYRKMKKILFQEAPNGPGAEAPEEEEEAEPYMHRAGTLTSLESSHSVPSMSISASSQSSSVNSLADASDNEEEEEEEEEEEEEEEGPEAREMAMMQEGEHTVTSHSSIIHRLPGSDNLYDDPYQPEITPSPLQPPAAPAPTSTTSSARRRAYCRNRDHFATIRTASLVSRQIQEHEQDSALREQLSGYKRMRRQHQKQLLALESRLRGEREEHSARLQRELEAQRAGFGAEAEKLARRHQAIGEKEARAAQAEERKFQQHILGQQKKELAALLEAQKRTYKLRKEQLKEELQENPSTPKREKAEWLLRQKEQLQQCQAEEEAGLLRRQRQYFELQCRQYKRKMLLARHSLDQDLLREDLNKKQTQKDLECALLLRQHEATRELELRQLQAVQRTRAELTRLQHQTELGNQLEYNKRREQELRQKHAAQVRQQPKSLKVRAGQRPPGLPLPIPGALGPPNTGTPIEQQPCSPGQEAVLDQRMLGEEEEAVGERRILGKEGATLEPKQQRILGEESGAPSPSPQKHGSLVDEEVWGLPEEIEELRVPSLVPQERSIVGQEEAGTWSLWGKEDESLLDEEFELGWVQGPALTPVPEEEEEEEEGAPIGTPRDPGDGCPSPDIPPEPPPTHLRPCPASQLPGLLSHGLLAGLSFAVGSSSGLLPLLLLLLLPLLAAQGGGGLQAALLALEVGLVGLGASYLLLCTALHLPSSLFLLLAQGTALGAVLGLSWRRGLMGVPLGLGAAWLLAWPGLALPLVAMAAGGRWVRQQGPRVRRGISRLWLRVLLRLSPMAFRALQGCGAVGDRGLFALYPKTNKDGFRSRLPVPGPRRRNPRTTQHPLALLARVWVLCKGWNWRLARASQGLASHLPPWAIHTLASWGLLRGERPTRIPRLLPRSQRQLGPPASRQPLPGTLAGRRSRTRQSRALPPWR
T11 sequence (Q9P1W9 whole entry): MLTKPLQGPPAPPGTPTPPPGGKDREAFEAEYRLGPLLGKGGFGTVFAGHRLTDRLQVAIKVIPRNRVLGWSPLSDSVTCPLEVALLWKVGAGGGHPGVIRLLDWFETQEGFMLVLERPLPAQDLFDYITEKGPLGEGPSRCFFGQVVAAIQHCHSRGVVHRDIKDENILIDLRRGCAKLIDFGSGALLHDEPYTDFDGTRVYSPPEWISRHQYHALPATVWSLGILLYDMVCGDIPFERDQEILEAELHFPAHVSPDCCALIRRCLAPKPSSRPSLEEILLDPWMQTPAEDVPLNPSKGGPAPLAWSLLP
Sequence of GPR68 (Q15743 whole entry): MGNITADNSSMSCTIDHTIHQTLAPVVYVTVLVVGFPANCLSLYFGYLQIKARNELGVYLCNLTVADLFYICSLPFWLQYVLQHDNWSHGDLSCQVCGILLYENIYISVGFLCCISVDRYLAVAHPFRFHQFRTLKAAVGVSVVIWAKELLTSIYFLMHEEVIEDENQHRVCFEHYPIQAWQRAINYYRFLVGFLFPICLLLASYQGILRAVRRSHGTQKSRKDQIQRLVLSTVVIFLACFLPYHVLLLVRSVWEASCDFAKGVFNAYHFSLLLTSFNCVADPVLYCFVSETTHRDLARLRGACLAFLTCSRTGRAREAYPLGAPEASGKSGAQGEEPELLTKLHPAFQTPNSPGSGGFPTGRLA

## CCc1ccc2c(c1)C1(NN=C(c3cccc4ccccc34)S1)C(=O)N2 (stereo not drawn) [OGM1, 5-ethyl-5′-naphthalen-1-ylspiro[1H-indole-3,2′-3H-1,3,4-thiadiazole]-2-one]
[1]
  remaining binding at 10 µM: 93%
[2]
  remaining binding at 10 µM: 100%
[3]
  remaining binding at 10 µM: 100%
[4]
  remaining binding at 10 µM: 86%
[5]
  remaining binding at 10 µM: 85%
[6]
  remaining binding at 10 µM: 100%
[7]
  remaining binding at 10 µM: 99%
[8]
  remaining binding at 10 µM: 100%
[9]
  remaining binding at 10 µM: 100%
[10]
  remaining binding at 10 µM: 96%
[11]
  remaining binding at 10 µM: 84%
[12]
  remaining binding at 10 µM: 94%
[13]
  remaining binding at 10 µM: 93%
[14]
  remaining binding at 10 µM: 100%
[15]
  remaining binding at 10 µM: 56%
[16]
  remaining binding at 10 µM: 88%
[17]
  remaining binding at 10 µM: 81%
[18]
  remaining binding at 10 µM: 71%
[19]
  remaining binding at 10 µM: 100%
[20]
  remaining binding at 10 µM: 81%
[21]
  remaining binding at 10 µM: 100%
[22]
  remaining binding at 10 µM: 100%
[23]; 10 uM
  Antagonism: 2.1
[23]; 12.5 uM
  Agonism: −0.2
[24]; 10 uM
  Antagonism: −2.6
[24]; 12.5 uM
  Agonism: 0.5
[25]; 10 uM
  Antagonism: −5.4
[25]; 12.5 uM
  Agonism: 1.2
[26]; 10 uM
  Antagonism: −2.8
[26]; 12.5 uM
  Agonism: −0.6
[27]; 10 uM
  Antagonism: −1.4
[27]; 12.5 uM
  Agonism: −1.5
[28]; 10 uM
  Antagonism: 22.8
[28]; 12.5 uM
  Agonism: 0.5
[29]; 10 uM
  Antagonism: −0.3
[29]; 12.5 uM
  Agonism: 1

## CCc1ccc2c(c1)C1(NN=C(c3ccccc3)S1)C(=O)N2 (stereo not drawn) [OGM2]
[30]
  migration: significantly reduced migration
[31]
  toxicity: relatively High doses of OGM2 are necessary for toxicity in A549 cells
[32]
  calcium response to 34 dyn/cm^2 flow: inhibited

— patent publication US20240327364A1, “THERAPEUTIC TARGETING OF GPR68 TO INDUCE FERROPTOSIS” (University Of Maryland, Baltimore, priority 2023, published 2024)
